The source of these data is article PMC7007416 (Analytical and Bioanalytical Chemistry, 2019).

The subject of series [1] is monolayer of Caco-2/HT29-MTX cells. Kind of series: Permeability in static Transwell system. Conditions: static experiments, ergotamin(in)e 10 μg/mL apical. The protocol:
(§1) The human colonic adenocarcinoma Caco-2 cell line was obtained from the American Type Culture Collection (ATCC, Manassas, VA, USA), and the human colon adenocarcinoma mucus-secreting HT29-MTX-E12 cell line was obtained from the European Collection of Authenticated Cell Cultures (ECACC, Salisbury, UK). Caco-2 cells were used at passage numbers 29–40, and HT29-MTX-E12 cells were used at passage numbers 52–70 for all experiments. Cells were cultured in DMEM containing 10% FBS, 1% NEAA and 1% penicillin-streptomycin and maintained at 37 °C in a 5% CO2-humidified air atmosphere and subcultured every 2 days to 3 days similar to the study of Abdelkhaliq et al.. For permeability experiments, cells were seeded at a density of 40,000 cells/cm^2 on a polycarbonate Transwell insert (area 0.6 cm^2, 0.4 μm pore size; Millipore) as follows: Caco-2 and HT29-MTX-E12 cells were seeded in a 3:1 ratio on the apical side of the Transwell system and allowed to attach for 24 h. After 24 h, cell culture medium was refreshed every 2–3 days and Transwell systems were used for permeability experiments following 21 days of culturing.
(§2) HEPES is added because the experiments with the flow-through Transwell systems are performed outside of a CO2-controlled incubator, and for the sake of comparability, it is added to the static Transwell systems as well. […]

The test system is the same in series [2]. Kind of series: Permeability in dynamic flow-through Transwell system, offline analysis. Conditions: dynamic vs static, ergotamin(in)e 10 μg/mL. Here is the method:
as §1, §2

The test system of series [3] is Caco-2 and HT29-MTX-E12 cells (ratio 3:1). The protocol: With the WST-1 assay, mitochondrial activity of the cell is measured by the conversion of WST-1 into formazan dye by mitochondrial dehydrogenase enzymes. The assay is performed as follows: Caco-2 and HT29-MTX-E12 cells (ratio 3:1) were seeded in Greiner Bio-One (Alphen aan den Rijn, The Netherlands) flat-bottom 96-well plates at a concentration of 1 × 10^5 cells/mL in cell culture medium (100 μL/well). Plates were incubated for 24 h at 37 °C under 5% CO2. […] Then, the exposure medium containing (dilutions of) the compounds of interest was discarded and the cells were washed with pre-warmed HBSS. Subsequently, WST-1 reagent (in cell culture medium without phenol red) was added to the cells (1:10, 100 μL/well). After 1.5 h of incubation at 37 °C, the absorbance of each well was measured at 440 nm using a Bio-Tek (Winooski, VT, USA) Synergy HT Multi-Mode microplate reader.

Series [4] is described as follows: Permeability in static Transwell system. Conditions: human. Here is the method: as §1, §2
Series [5] deals with monolayer of Caco-2/HT29-MTX cells. The protocol:
as §1

Series [6] has the same test system. Kind of series: Lucifer yellow cell barrier integrity test. It counts as in vitro ADME, human. Conditions: 500 μg/mL apical, 30 min, after permeability experiments (day 21); average. Here is the method:
Barrier integrity was evaluated similar to the study of Hubatsch et al., and cells were cultured on a Transwell membrane for 21 days and subsequently stained for tight junction protein ZO-1 and the cell nuclei. For this, the cells were washed with PBS and fixed with 4% paraformaldehyde (w/v) for 15 min. Cells were permeabilized with 0.25% Triton X-100 (v/v) and blocked with 1% BSA (w/v). The cells were then incubated with the conjugated antibody ZO-1/TJP1-Alexa Fluor 594 for 45 min (10 μg/mL). Subsequently, DAPI was used to stain the nuclei for 10 min (5 μg/mL). Between incubations, cells were washed with PBS three times. Cells were mounted in a 120-μm spacer (Sigma-Aldrich) on a microscope slide (Thermo Scientific) with ProLong Diamond Antifade Mountant. Slides were then examined using a Zeiss (Jena, Germany) LSM 510 META confocal microscope. Samples were excited with 405-nm and 543-nm lasers, and the pinholes were in the range of 90–94 μm at a magnification of × 40. Cell layer integrity was also evaluated using the transport marker Lucifer yellow. […] Cell culture medium was collected from the apical and basolateral sides at t = 0 and t = 30 min and analysed for fluorescence at 458 nm/530 nm using a Bio-Tek Synergy HT Multi-Mode microplate reader. […]

`CN1C[C@@H](C(=O)N[C@]2(C)O[C@@]3(O)[C@@H]4CCCN4C(=O)[C@H](Cc4ccccc4)N3C2=O)C=C2c3cccc4[nH]cc(c34)C[C@H]21` [ergotaminine]: the apparent permeability coefficient in series [1] is given as 50.2 ± 5.8 × 10^−6 cm/s. Besides, the “permeability, times lower in the dynamic experiments compared to the static experiments” value in series [2] is given as 5 times. As to Triton X-100, the cell viability in series [3] (positive control, Triton X-100 0.25% v/v, percentage of negative control) is 0.4% ± 0.3. As to `CN1C[C@H](C(=O)N[C@]2(C)O[C@@]3(O)[C@@H]4CCCN4C(=O)[C@H](Cc4ccccc4)N3C2=O)C=C2c3cccc4[nH]cc(c34)C[C@H]21` [ergotamine], the Papp (commonly a coefficient for how fast a substance crosses the barrier) at 180 min, 10 μg/mL in series [4] stood at 8.6 ± 1.2 ×10⁻⁶ cm/s. For the compound `CN1C2CCCC1CC(NC(=O)c1nn(C)c3ccccc13)C2` (centres unmarked) [granisetron, Granisetron], in series [3] (human, 24 h), the non-toxic concentration is 10 µg/mL. Further, the “cell-induced product formation on the basolateral side” value in series [5] is “no cell-induced products were detected”. For the same compound, the “translocated across the in vitro intestinal barrier, cumulative % of the apical concentration” value in series [5] (human, 3 h) worked out at 13.1%. As for Lucifer yellow, the “Lucifer yellow permeability (percentage of the apical concentration)” value in series [6] is 0.18% ± 0.06.
